Changes are numbered by the printed parent chain. “Also recorded” adds a separate entry of the source. Like-named read-outs stand apart in the source and are kept apart here. Residues, ends and D or L forms follow the SMILES beside them. *: point of attachment. 5FAM = O=C1OC2(c3ccc(O)cc3Oc3cc(O)ccc32)c2ccc(C(=O)*)cc21
Experiments:
ZDHHC7 [1] = biological target: T1, ZDHHC7 (Mus musculus, UniProt Q91WU6); experiment: ZDHHC7-myrGia PAT assay with [3H]palmitoyl-CoA; assay type: biochemical; set-up: myc (vector pblueBac4.5-myc3His10) (C); His (vector pblueBac4.5-myc3His10) (C); made in house; host or cells: Sf9 insect cells (baculovirus); conditions: [3H]palmitoyl-CoA and myr-Gia substrate; 10 min pre-incubation at 30° C.
T1 sequence (Q91WU6 1-308): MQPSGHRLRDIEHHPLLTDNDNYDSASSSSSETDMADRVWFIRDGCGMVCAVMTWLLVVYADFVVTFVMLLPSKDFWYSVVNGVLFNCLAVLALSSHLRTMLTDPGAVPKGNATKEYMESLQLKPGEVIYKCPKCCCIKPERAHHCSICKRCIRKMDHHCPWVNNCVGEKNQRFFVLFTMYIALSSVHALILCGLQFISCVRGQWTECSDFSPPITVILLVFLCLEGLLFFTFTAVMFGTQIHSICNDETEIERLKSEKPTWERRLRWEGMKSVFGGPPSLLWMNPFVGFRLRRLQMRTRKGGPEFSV
Protocol: To further evaluate the potency of the inhibitors, the four compounds were tested using ZDHHC7-catalyzed palmitoylation of myristoylated (myr) Gi protein a subunit (Gia) using an established in vitro assay with [^3H]palmitoyl-CoA. Myr-Gia was previously reported as a substrate for ZDHHC7 (R. Tsutsumi et al., Mol. Cell. Biol., 29, 435-447, 2009). ZDHHC7 and the inhibitors were pre-incubated at 30° C. for 10 min, followed by the addition of [^3H]pal-mitoyl-CoA and myr-Gia. The acylation reaction was allowed to proceed at 30° C. for 10 min, the reaction was quenched, and the proteins resolved by SDS-PAGE. The [^3H]-palmitoylated myrGia band was excised from the gel and the level of [^3H]palmitoylation was measured by scintillation counting. […] Additionally, MY-D-2 and MY-D-3 inhibited ZDHHC7 weaker than 2-BP.
(§1) Purification of ZDHHC enzymes.
ZDHHC7-myrGia PAT Assay. Rat Myr-Gia was generated by transforming C-terminally His-tagged Gia in JM101 competent cells containing the N-myristoyltransferase (NMT) plasmid. Following inoculation and induction of the bacterial cells, myr-Gia was purified from total cell lysates using Ni-NTA resin. […] The PAT reaction was then initiated by mixing the enzyme:inhibitor solution with [^3H]-palmitoyl CoA (1 μM) and myr-Gia (1 μM). The reaction was allowed to proceed for 10 min at 30° C. and then stopped with the addition of sample buffer containing 10 mM TCEP. Proteins were resolved on a Coomassie-stained gel, and the myr-Gia band was excised and dissolved in Soluene (Perkin-Elmer). The excised bands were heated at 37° C. overnight and then combined with Ultima Gold scintillation fluid (Perkin-Elmer). Radioactivity was measured by scintillation counting. IC50 values for the inhibitors were calculated by plotting the inhibition curves in GraphPad Prism.

ZDHHC7 [2] = biological target: T2, ZDHHC7 (Homo sapiens, UniProt Q9NXF8); experiment: STAT3 fatty acylation induced by ZDHHC7 in HEK293T cells (Alk14 labeling, in-gel fluorescence); conditions: for STAT3 fatty acylation (ZDHHC7): 50 μM inhibitor, 6-hour treatment; for in-cell inhibition of ZDHHC7 (overall): HEK293T cells, summary statement; for STAT3 acylation (ZDHHC7): 12- and 24-hour inhibitor treatment
T2 sequence (Q9NXF8 1-308): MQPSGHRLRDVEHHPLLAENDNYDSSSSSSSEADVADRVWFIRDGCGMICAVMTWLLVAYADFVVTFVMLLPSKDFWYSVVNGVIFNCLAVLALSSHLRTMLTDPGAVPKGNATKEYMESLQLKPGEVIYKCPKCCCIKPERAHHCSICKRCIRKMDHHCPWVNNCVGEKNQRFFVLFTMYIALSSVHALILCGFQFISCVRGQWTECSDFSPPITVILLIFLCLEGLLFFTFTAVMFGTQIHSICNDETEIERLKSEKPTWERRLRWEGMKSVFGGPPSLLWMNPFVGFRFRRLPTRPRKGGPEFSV
Protocol: Cells were treated with 50 μM of the inhibitors for the indicated hours and labeled with 50 μM of Alk-14 for 6 hours. […] Cells were treated with 25 μM of inhibitors for 16 hours and labeled with 50 μM of Alk-14 for 6 hours. Relative FL/Protein for both experiments was calculated by dividing fluorescence signal by the protein level from the corresponding “CBB” lane. The fatty acylation level of DMSO with Alk14 was set to 1.
Flag-tagged STAT3 and HA-tagged ZDHHC7 were expressed in HEK293T cells. The cells were incubated with the four inhibitors. During the last six hours of the incubation, 50 μM of Alk14 probe was added to metabolically label palmitoylated STAT3. After collecting and lysing the cells, STAT3 was immunoprecipitated and the levels of acylation were determined by in-gel fluorescence after click chemistry.
HEK 293T cells were transfected with STAT3-Flag and ZDHHC3-HA or ZDHHC7-HA for 36 h, and treated with 50 μM 2-BP, MY-D-2, MY-D-3, or MY-D-4 for the indicated time with 6 h Alk14 labeling (50 μM). Cells were collected and lysed in the 1% NP-40 lysis buffer (25 mM Tris-HCl pH 8.0, 10% glycerol, 150 mM NaCl, 1% Nonidet P-40) with protease inhibitor cocktail (P8340, Sigma). STAT3-Flag was purified by anti-Flag agarose beads and resuspended in 50 μL IP wash buffer (25 mM Tris-HCl pH 8.0, 150 mM NaCl, 0.2% Nonidet P-40). Click chemistry was done by adding a mixture of 3 μL of 2 mM TAMRA azide (47130, Lumiprobe), 3.6 μL of 10 mM tris[(1-benzyl-1H-1,2,3-triazol-4-yl)methyl]amine (TBTA) (T2993, TCI chemicals), 3 μL of 40 mM CuSO4, 3 μL of 40 mM tris(2-carboxyethyl)phosphine HCl (TCEP hydrochloride) (580560, Millipore) to each sample. The mixtures were mixed by vortex and incubated in dark at room temperature for 30 min. 20 μL of the 6× loading buffer was added into each reaction mixture and the mixture was boiled at 95° C. for 10 min to denature. The mixture was separated by SDS-PAGE gel. The gel was scanned by the Typhoon 7000 Variable Mode Imager (GE Healthcare Life Sciences) in the rhodamine channel to visualize the fatty acylation of STAT3 and was stained with Coomassie Brilliant Blue (B7920, Sigma) to check for protein loading. Relative FL/Protein quantification was done by ImageJ.

ZDHHC7 [3] = biological target: T1, ZDHHC7; experiment: ZDHHC7 Acyl-cLIP assay (end-point method)
Protocol: Because these inhibitors may form irreversible covalent bonds with ZDHHCs, the order of adding the reagents were changed and included a 30-minute pre-incubation time to permit the bond to form prior to the addition of the FAM peptide and palmitoyl-CoA to initiate the reaction.
n-Dodecyl β-D-maltoside (DDM, 1.3 mg) was dissolved in 1 mL of water by vigorous vortexing. Preparing for 19 samples, “Buffer A” was prepared as follows: In a 1.5 mL Eppendorf tube with the DDM solution (190 μL), MES buffer pH 6.5 (stock concentration 500 mM, 38 μL), TCEP (stock concentration 30 mM, 6.33 μL), and ZDHHC7 (stock concentration 6 μM, 19 μL) were added. For the same 19 samples, “Buffer B” was prepared as followed. In a 1.5 mL Eppendorf tube with the DDM solution (76 μL), palmitoyl-CoA (stock concentration 1.5 mM, 12.6 μL) and FAM-Kras4a substrate (stock concentration 0.5 mM, 19 μL) was added. To each well of a black 384 well plate (Corning 3575), 1 μL of inhibitor (concentration ranging from 93.75 μM to 6000 μM) was added. First, 13.3 μL of “Buffer A” was added to each well. After a 30-minute pre-incubation, 5.66 μL of “Buffer B” was added. The final concentration of the reaction mixture was 50 mM MES pH 6.4, 0.5 mM TCEP, 40 μM palmitoyl-CoA, 0.3 μM ZDHHC7, and 25 μM FAM-KRas4a substrate in 0.1% DDM solution. After 30 minutes, the reaction was quenched by adding 4 μL of 6 mM non-FAM KRas-4a substrate. The fluorescence anisotropy was measured by citation 5 with “8040561 Filter BLK ASBY GRN FP VSBL K” cube at excitation of 485/20 nm, emission of 528/20 nm, and normal read speed mode. The measurements were done in 3 replicates at each inhibitor concentration.

ZDHHC3 [4] = biological target: T3, ZDHHC3 (Mus musculus, UniProt Q8R173); experiment: ZDHHC3 Acyl-cLIP assay (end-point method); assay type: biochemical; conditions: for inhibition of ZDHHC3 compared with ZDHHC7 (Acyl-cLIP): comparison of Acyl-cLIP IC50 values
T3 construct: FLAG (C); His (C); made in house; host or cells: Sf9 insect cells (baculovirus)
T3 sequence (Q8R173 1-299): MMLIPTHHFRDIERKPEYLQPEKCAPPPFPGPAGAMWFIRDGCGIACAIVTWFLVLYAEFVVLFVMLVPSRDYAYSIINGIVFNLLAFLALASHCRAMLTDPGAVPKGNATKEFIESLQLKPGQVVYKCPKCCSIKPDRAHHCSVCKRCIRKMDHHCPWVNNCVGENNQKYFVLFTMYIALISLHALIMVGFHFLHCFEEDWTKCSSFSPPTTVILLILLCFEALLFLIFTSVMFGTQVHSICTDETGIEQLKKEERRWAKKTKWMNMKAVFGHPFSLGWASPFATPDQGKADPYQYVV
Protocol: The DHHC3 IC50 value for 2-BP and MY-D-4 were approximately 250 and 50 μM, respectively (Table 1).
ZDHHC3 was assayed using the similar protocol at a final concentration of 0.6 μM.
The rest of the experiment was done identical to the ZDHHC7 assay.
as §1

ZDHHC3 [5] = biological target: T4, ZDHHC3 (Homo sapiens, UniProt Q9NYG2); experiment: STAT3 fatty acylation induced by ZDHHC3 in HEK293T cells (Alk14 labeling, in-gel fluorescence); assay type: cell-based; conditions: for effect on ZDHHC3-catalyzed STAT3 acylation level: 25 μM, 6-hour treatment
T4 construct: HA; expressed in transfected cells; host or cells: HEK 293T cells
T4 sequence (Q9NYG2 1-299): T3 sequence (Q8R173 1-299) with D11N, A25V, F29Y, A33V, A35T, V68I, A74V, A224G
Source text: Next experiments also tested the four compounds for ZDHHC3 inhibition in HEK293T cells that over-express both ZDHHC3 and STAT3. […] Thus, the results from the Acyl-cLIP assay can be used to predict cellular responses.

ZDHHC7 [6] = biological target: T1, ZDHHC7; experiment: Enzyme kinetics of ZDHHC7 on the FAM-KRas4a peptide by HPLC; assay type: biochemical; set-up: myc (vector pblueBac4.5-myc3His10) (C); His (vector pblueBac4.5-myc3His10) (C); made in house; host or cells: Sf9 insect cells (baculovirus); conditions: ZDHHC7, 60 μM palmitoyl-CoA
Protocol: ZDHHC-catalyzed S-palmitoylation was detected by LC-MS. To facilitate detection by UV, two tryptophan residues were added to the C-terminus of the peptide. In a second peptide, the 5-FAM group was attached to permit detection in the acyl-cLIP assay.
In solutions containing 0.1% DMM, 50 mM MES pH 6.4, 0.5 mM TCEP, 60 μM palmitoyl-CoA, and 0.15 μM DHHC7, FAM-KRas peptide was added to final concentration ranging from 31.25 μM to 2000 μM. After 10 minutes of incubation, the reaction was quenched with 0.1% acetonitrile. After centrifuging at 17 000 g for 10 minutes, the supernatant was loaded to Shimadzu HPLC LC20 Ad with Kinetex 5u EVO C18 100 Å column (100 mm×4.60 mm, 5 μm) for UV detection at 260 nm. Using HPLC-grade water with 0.1% trifluoroacetic acid as Buffer A and HPLC-grade acetonitrile with 0.1% trifluoroacetic acid, at a constant rate of 0.5 mL/min, the linear gradient for elution was 0% Buffer B (0-2 min), 20% Buffer B (2-4 min), 40% Buffer B (4-17 min), 100% Buffer B (17-19 min), 100% Buffer B (19-24 min), 0% Buffer B (24-25 min), and 0% Buffer B (25-30 min). Product formed was quantified using the ratio of substrate and product peak areas. After the detection, Km and kcat values were measured by GraphPad Prism software.

ZDHHC7 [7] = biological target: T1, ZDHHC7; experiment: ZDHHC-HRas PAT assay, ZDHHC7; assay type: biochemical; set-up: myc (vector pblueBac4.5-myc3His10) (C); His (vector pblueBac4.5-myc3His10) (C); made in house; host or cells: Sf9 insect cells (baculovirus); conditions: fixed inhibitor concentration of 1 μM; order MY-D-4, 2-BP, MY-D-2, MY-D-3
Protocol: (§2) The results of the Acyl-cLIP assay were also compared with a conventional assay using HRas protein. Next experiments screened at a fixed inhibitor concentration of 1 μM against ZDHHC3 and ZDHHC7 using [^3H]palmitoyl-CoA and HRas protein as substrates. The levels of [^3H]palmitoylated HRas were detected.
as §1
(§3) ZDHHC-HRas PAT Assay. His-HRas was purified from total cell lysates of baculovirus-infected Sf9 cells using Ni-NTA resin.

ZDHHC3 [8] = biological target: T3, ZDHHC3; experiment: ZDHHC-HRas PAT assay, ZDHHC3; assay type: biochemical; conditions: fixed inhibitor concentration of 1 μM; order MY-D-4, 2-BP, MY-D-2, MY-D-3
Protocol: as §2, §1, §3

[9] = IC50 (μM) ZDHHC7 (Acyl-cLIP), 30-minute pre-incubation with inhibitor, FAM-KRas4a peptide substrate
[10] = IC50 ZDHHC7 (Acyl-cLIP) without the pre-incubation, without pre-incubation
[11] = 30-minute pre-incubation, FAM-KRas4a peptide substrate

Structure (SMILES) | IC50 (ZDHHC7 [1]) [µM] | STAT3 fatty acylation (ZDHHC7) (ZDHHC7 [2]; HEK293T) | in-cell inhibition of ZDHHC7 (overall) (ZDHHC7 [2]) | IC50 (ZDHHC7 [3]; [9]) [µM] | IC50 (ZDHHC7 [3]; [10]) [µM] | IC50 (μM) ZDHHC3 (Acyl-cLIP) (ZDHHC3 [4]; [11]) | effect on ZDHHC3-catalyzed STAT3 acylation level (ZDHHC3 [5]) | inhibition of ZDHHC7 (Acyl-cLIP) at highest concentration (ZDHHC7 [3]; at 150 μM) | IC50 (ZDHHC7 [2]) [nM] | IC50 (ZDHHC3 [4]) [µM] | inhibition of ZDHHC3 in living cells (FIG. 4B) (ZDHHC3 [5]; 25 μM of inhibitors for 16 hours) | time-dependent inhibition of STAT3 acylation (ZDHHC7) (ZDHHC7 [2]; 25 μM inhibitor, HEK293T) | STAT3 acylation (ZDHHC7) (ZDHHC7 [2]; HEK293T) | IC50 (ZDHHC7 [3]; read-out: IC50 (μM) ZDHHC7 (Acyl-cLIP), 30-minute pre-incubation with inhibitor, FAM-KRas4a peptide substrate) [µM] | IC50 (ZDHHC7 [3]; read-out: IC50 ZDHHC7 (Acyl-cLIP) without the pre-incubation, without pre-incubation) [µM] | IC50 (ZDHHC3 [4]; [11]) [µM] | inhibition of ZDHHC3 compared with ZDHHC7 (Acyl-cLIP) (ZDHHC3 [4]) | Km (ZDHHC7 [6]) [µM] | inhibition of ZDHHC7, levels of [3H]palmitoylated HRas (ZDHHC7 [7]) | inhibition of ZDHHC3, levels of [3H]palmitoylated HRas (ZDHHC3 [8])
CCCCCCCCCCCCCCC(Br)C(=O)O (centres unmarked) [2-BP, 2-bromopalmitate, reference compound] | 16 | abolished |  |  |  |  |  |  |  |  |  | slightly more inhibitory effect than MY-D-4 | completely eliminated | 9 | 12 | > 250 | inhibited ZDHHC3 much less than ZDHHC7 |  |  | 
CC[C@H](C)[C@H](NC(=O)c1ccc2c(c1)C(=O)OC21c2ccc(O)cc2Oc2cc(O)ccc21)C(=O)N[C@@H](CO)C(=O)N[C@@H](CCCCN)C(=O)N[C@@H](CCC(=O)O)C(=O)N[C@@H](CCC(=O)O)C(=O)N[C@@H](CCCCN)C(=O)N[C@H](C(=O)N1CCC[C@H]1C(=O)NCC(=O)N[C@@H](CS)C(=O)N[C@H](C(=O)N[C@@H](CCCCN)C(=O)N[C@H](C(=O)N[C@@H](CCCCN)C(=O)N[C@@H](CCCCN)C(=O)O)[C@@H](C)CC)C(C)C)[C@@H](C)O [FAM-KRas4a peptide] (5FAM-ISKEEKTPGCVKIKK-OH) |  |  |  |  |  |  |  |  |  |  |  |  |  |  |  |  |  | 184 |  | 
CCCCCCCCCCCCCCC(Br)C(=O)SCCNC(C)=O [MY-D-4, S-(2-acetamidoethyl) 2-bromohexadecanethioate] | 1.6 | significantly reduced | slightly weaker than or similar potency to 2-BP; also recorded: inhibits | 4.4 | 6.3 |  |  |  | 1000 to 5000 | ~50 | inhibits |  | completely eliminated |  |  |  | inhibited ZDHHC3 much less than ZDHHC7 |  | strongest inhibition among the four compounds | strongest inhibition among the four compounds

Further lines, with some results ahead:

IC50 (ZDHHC7 [1]) [µM] | STAT3 fatty acylation (ZDHHC7) (ZDHHC7 [2]; HEK293T) | in-cell inhibition of ZDHHC7 (overall) (ZDHHC7 [2]) | IC50 (ZDHHC7 [3]; [9]) [µM] | IC50 (ZDHHC7 [3]; [10]) [µM] | IC50 (μM) ZDHHC3 (Acyl-cLIP) (ZDHHC3 [4]; [11]) | effect on ZDHHC3-catalyzed STAT3 acylation level (ZDHHC3 [5]) | inhibition of ZDHHC7 (Acyl-cLIP) at highest concentration (ZDHHC7 [3]; at 150 μM) | IC50 (ZDHHC7 [2]) [nM] | IC50 (ZDHHC3 [4]) [µM] | inhibition of ZDHHC3 in living cells (FIG. 4B) (ZDHHC3 [5]; 25 μM of inhibitors for 16 hours) | Structure (SMILES) | time-dependent inhibition of STAT3 acylation (ZDHHC7) (ZDHHC7 [2]; 25 μM inhibitor, HEK293T) | STAT3 acylation (ZDHHC7) (ZDHHC7 [2]; HEK293T) | IC50 (ZDHHC7 [3]; read-out: IC50 (μM) ZDHHC7 (Acyl-cLIP), 30-minute pre-incubation with inhibitor, FAM-KRas4a peptide substrate) [µM] | IC50 (ZDHHC7 [3]; read-out: IC50 ZDHHC7 (Acyl-cLIP) without the pre-incubation, without pre-incubation) [µM] | IC50 (ZDHHC3 [4]; [11]) [µM] | inhibition of ZDHHC3 compared with ZDHHC7 (Acyl-cLIP) (ZDHHC3 [4]) | Km (ZDHHC7 [6]) [µM] | inhibition of ZDHHC7, levels of [3H]palmitoylated HRas (ZDHHC7 [7]) | inhibition of ZDHHC3, levels of [3H]palmitoylated HRas (ZDHHC3 [8])
29 | only slightly decreased | only mild inhibition | 38 | 75 | No | only slightly affected |  |  |  |  | CCCCCCCCCCCCCCC(Br)C(=O)OC [MY-D-2, methyl 2-bromohexadecanoate] |  |  |  |  |  |  |  |  | 
78 | had no effect | no inhibition | > 150 |  | No | did not alter | no inhibition |  |  |  | CCCCCCCCCCCCCCC(Br)C(=O)Nc1ccccc1 [MY-D-3, 2-bromo-N-phenylhexadecanamide] |  |  |  |  |  |  |  |  | 

From patent US12416036B2, “High-throughput enzyme assay for screening activity of acyltransferases” (CORNELL UNIVERSITY, priority 2021, dated 2025)
